The values below come from paper PMC7613620, “Reaction hijacking of tyrosine tRNA synthetase as a whole-of-life-cycle antimalarial strategy” (Science (New York, N.Y.), 2022).

For the assay, the system named is P. falciparum (Cam3.II-rev) schizont stage. Description: 3 h drug pulse viability assay. Type of assay: cell-based, Plasmodium falciparum. The following applies: Plasmodium falciparum, 3 h, read-out: IC50 (Viability). The protocol: 553 Sigma-Aldrich) for 48-72 h. For drug pulse assays, tightly synchronized parasites (1-1.5% parasitemia,
554 0.2% final hematocrit) were added to the plates and incubated for 3 h. Drugs were removed and the
555 parasitemia assessed in the trophozoite stage of the next cycle.
557 Compounds were tested against a range of drug resistant field isolates and laboratory strains using a
558 modified [3H]-hypoxanthine incorporation assay, as previously reported (46). Field isolates 7G8, Cam3.1,
559 Dd2, K1, TM90C2B and NF54 were obtained from MR4 (www.beiresources.org).
561 Mammalian cell culture experiments
562 The HepG2 (Human hepatocyte carcinoma) cell line was procured from ATCC (American Type
563 Culture Collection, Manassas, USA; HB-8065) and viability assessed using Cell Titer-GLO luminescent
564 cell viability assay reagents (Promega, catalogue number: G7570) (47, 48). For the assay, 2000 cells/well
565 were plated in 384-well plates 24 h prior to the experiment and incubated at 37°C in a CO2 incubator. The
566 medium was removed and cells were treated with fresh medium containing either vehicle (0.5% DMSO)
567 or serially diluted test compounds or doxorubicin (1.3 nM to 25 µM) in a final volume of 50 µl/well and
568 further incubated for 72 h at 37°C in a CO2 incubator.
569 were treated with 5 µl of 1% Triton X-100 (final assay conc. 0.1%). Following incubation, 25 µl of medium
570 was discarded and 25 µl of Cell Titer-GLO reagent was added to each well and the plate was kept on a plate
571 shaker for 15 min at 25°C with shaking at 300 rpm. Luminescence signals were measured in a Spectramax
572 M5 reader (Molecular Devices).
574 H1650 is a human lung cancer derived ATG7-null cell line (49) that can be used to assess effects on targets
576 adenocarcinoma; bronchoalveolar carcinoma). Other cells lines used are: H460 (NCI-H460; human lung;
577 carcinoma; large cell lung cancer; ATCC: HTB-177); and HCT116 (human colon; colorectal carcinoma;
578 ATCC: CCL-247; Lot : 5056139). […]
580 inhibitors and cell viability was assessed by comparing the ATP content in compound-treated wells with […]

For `Nc1ncnc2c1c(OC(F)F)nn2[C@@H]1O[C@H](COS(N)(=O)=O)[C@@H](O)[C@H]1O` [ML901], the IC50 (in general, the midpoint of a concentration-inhibition curve) came out at 56 nM.
